In brackets after ≈: the same amount, converted by molar mass.
Experiments:
[1] = standard substances, known values (Hansch, Leo, Hoekman); cited from earlier work
[2] = Evaluation on lipid solubility: distribution ratio (D) of 1-octanol to water by ODS column HPLC; format: physicochemical; settings: 1-octanol/water, pH 6.8, from HPLC retention on ODS column
Protocol: A parameter of lipid solubility, i.e., a distribution ratio (D) of a 1-octanol to water (pH: 6.8) was determined with an ODS (silica gel having a surface modified with an octadecylsilyl group) column by the following method.
The mobile phase shown in Table 2 was added to sodium nitrate (to marker) and six standard substances having known partition coefficients shown in Table 2 to prepare mixed solutions each containing 5 μg/mL sodium nitrate and a 10 μg/mL or 10 μL/mL standard substance; these mixed solutions were used as standard solutions. The mobile phase shown in Table 3 was added to a sample, the concentration was adjusted to 0.1 mM to prepare a sample solution. HPLC analysis of the standard solutions and the sample solution was performed on the following conditions, and the retention times (tr) of the standard substances and the sample were measured. From the retention factor (kstd) determined from the partition coefficient (log P) of the standard substance and Expression I, the regression coefficient (a) and the constant term (b) in Expression II were determined; using Expression III, the partition coefficient (log D) at a pH of 6.8 was calculated from the retention factor (ksmpt) of the sample; finally, the distribution ratio (D) of 1-octanol to water (pH: 6.8) was obtained.
Reference: Exploring QSAR-Hydrophobic, and Steric Constants, Corwin Hansch, Albert Leo, and David Hoekman, ACS Professional Reference Book k=(tr−t0)/t0 Expression I log P=a×log kstd+b Expression II log D=a×log ksmp+b Expression III (2) Measurement Conditions

[3] = Evaluation on solubility (HPLC-UV, phosphate-buffered saline); format: physicochemical; settings: for solubility: aqueous buffer, kinetic from dmso stock, Dulbecco's phosphate-buffered saline pH 7 (GIBCO), room temperature, about 15 minutes shaking; for Solubility compared with Comparative Example 1 and Comparative Example 2: phosphate-buffered saline pH 7, result in words
Protocol: The supernatant was then separated through vacuum filtration operation. A dimethyl sulfoxide solution (sample concentration: 100 μM) was used as a standard solution, and the sample concentration in the supernatant determined by an HPLC-UV method was defined as solubility. Test solution: pH of 7, GIBCO™ (Dulbecco's phosphate-buffered saline, Invitrogen Corporation)

[4] = Metabolic stability of pooled human liver microsomes; format: in vitro ADME; settings: for Residual rate of unchanged substance (%): 0.3 μM compound, 0.2 mg/mL microsomes, 37° C., NADPH; for microsomal CLint at 0.3 μM: ke/(concentration of pooled human liver microsomes), read-out: Hepatic intrinsic clearance; for Clearance of human liver microsomes compared with the respective Comparative Example: result in words
Protocol: Evaluations on the metabolic stability of human liver microsomes prepared in Reference Examples 1 and 2 and Comparative Examples 1 and 2 produced using Examples were performed as follows.
A test compound was added to an enzyme solution (pooled human liver microsomes (0.2 mg/mL), 100 mM Kpi, containing 0.1 mM EDTA), and was incubated in the presence of a coenzyme for a predetermined time at 37° C. The final concentration of the test compound was 0.3 μM. As the coenzyme, an NADPH-generating system (solution in which 60 mM MgCl2 solution containing 3.6 mM β-NADP^+, 90 mM glucose-6-phosphate, and 1 Unit/mL glucose-6-phosphate dehydrogenated enzyme was incubated at 37° C. for 5 minutes to generate NADPH) was used. After pre-incubation, part of the reaction solution was extracted; a double amount of a mixed solution of acetonitrile and methanol (7:3, containing 1.0 μM Propranolol as an internal standard substance) was added to terminate the reaction, and the concentration of the unchanged substance in the reaction solution was measured by LC-MS/MS. Based on the peak area of the unchanged substance obtained, the residual rate (%) of the unchanged substance was calculated wherein the residual rate at 0 min (incubation time) was 100%. Namely, the inclination of the straight line obtained when the value obtained by natural logarithmic conversion of the residual rate of the unchanged substance after a predetermined reaction time was plotted as the ordinate, and the reaction time was plotted as the abscissa was defined as an elimination rate constant (ke). Based on the obtained elimination rate constant ke, the hepatic intrinsic clearance of the test compound was calculated with the following expression: Hepatic intrinsic clearance (mL/min/mg protein)=ke/(concentration of pooled human liver microsomes: mg protein/mL)

[5] = test system: C. albicans CAF2-1 strains; assay: Anticandidal activity (MIC measurement); format: cell-based; settings: for MIC: Candida albicans, CAF21STRAINS; for Anticandidal activity compared with amphotericin B: result in words
Protocol: The anticandidal activity of Reference Examples 1, 2, and 3 and Comparative Examples 1, 2, and 3 produced using Examples and amphotericin B was measured as follows.
C. albicans CAF2-1 strains were subjected to static culture in a Sabouraud dextrose liquid culture medium (SDB) at 30° C. for 48 hours; and the bacterial suspension was diluted with an RPMI1640 culture medium to prepare a 1.2×10^3 cells/mL bacterial suspension.
The diluted solutions of eight test compounds in plates (A to H) were prepared using a U-bottomed 96-well plate. 10 μL of a dimethyl sulfoxide solution was poured into columns 2 to 12 of the individual plates. The weighed test compounds were separately dissolved in dimethyl sulfoxide to prepare 2.5 mg/mL solutions; then, these solutions (20 μL) were placed in column 1 of the prepared plates, and were subjected to two-fold serial dilution in 12 steps on the plates (10 μL of solution+10 μL of dimethyl sulfoxide solution). The diluted solutions of the test compounds each were placed in a flat-bottomed 96-well plate for MIC measurement in an amount of 1 μL to prepare plates of the diluted test compound.
The bacterial suspension prepared in (1) (99 μL/well) was inoculated into the flat-bottomed 96-well plate containing the diluted solutions of the test compounds (1 μL/well) prepared in (2), and was subjected to static culture at 35° C. for 42 to 48 hours under an aerobic condition.

[6] = RPMI1640, 35° C., 42 to 48 hours, visually determined

SMILES	Partition coefficient (logP) [1]	chromatographic logD [2]	solubility [3]	Residual rate of unchanged substance (%) ([4]; After 0 min (defined as 100%))	Residual rate of unchanged substance (%) ([4]; After 15 min)	Residual rate of unchanged substance (%) ([4]; After 30 min)	Residual rate of unchanged substance (%) ([4]; After 60 min)	microsomal CLint at 0.3 μM [4]	MIC [5, 6]	Anticandidal activity compared with amphotericin B [5]	Solubility compared with Comparative Example 1 and Comparative Example 2 [3]	Clearance of human liver microsomes compared with the respective Comparative Example [4]	Anticandidal activity (MIC) [5, 6]
CCCCc1ccccc1 [n-Butylbenzene]	4.38												
Cc1cc(Cc2ccc(CNC(=O)c3ccc(N)nc3N)cc2)sc1C [Comparative Example 1, 2,6-Diamino-N-({4-[(4,5-dimethylthiophen-2-yl)methyl]phenyl}methyl)-pyridine-3-carboxamide, reference compound]		3.27	0.2 µM (≈ 0.0733 µg/mL)	100.0%	93.1%	77.0%	56.2%	50 µL/min/mg	0.13 µg/mL (≈ 0.355 µM)	strong anticandidal activity equal to that of amphotericin B			
Cc1cc(C(=O)NCc2ccc(OCc3ccccc3)cc2)c(N)nc1C [Comparative Example 3, 2-Amino-N-(4-(benzyloxy)benzyl)-5,6-dimethylnicotinamide, reference compound]		3.41		100.0%	65.0%			150 µL/min/mg	0.13 µg/mL (≈ 0.36 µM)	strong anticandidal activity equal to that of amphotericin B			
Nc1nc2c(nc1C(=O)NCc1ccc(COc3ccccn3)cc1)COC2 [Reference Example 2, 5-Amino-N-({4-[(pyridin-2-yloxy)methyl]phenyl}methyl)-1,3-dihydrofuro[3,4-b]pyrazine-6-carboxamide]		2.72	2.1 µM (≈ 0.793 µg/mL)	100.0%	87.0%	77.6%	65.4%	35 µL/min/mg	0.5 µg/mL (≈ 1.32 µM)	strong anticandidal activity equal to that of amphotericin B	higher	improved	
C[C@@H]1[C@H](O)[C@@H](C)/C=C/C=C/C=C/C=C/C=C/C=C/C=C/[C@H](O[C@@H]2O[C@H](C)[C@@H](O)[C@H](N)[C@@H]2O)C[C@@H]2O[C@](O)(C[C@@H](O)C[C@@H](O)[C@H](O)CC[C@@H](O)C[C@@H](O)CC(=O)O[C@H]1C)C[C@H](O)[C@H]2C(=O)O [Amphotericin B]													1.6 µg/mL
Nc1ccc(C(=O)NCc2ccc(Cc3cc4c(s3)COC4)cc2)c(N)n1 [Reference Example 1]		2.15	13.9 µM (≈ 5.29 µg/mL)	100.0%	83.6%	75.9%	61.4%	39 µL/min/mg	0.25 µg/mL (≈ 0.657 µM)	strong anticandidal activity equal to that of amphotericin B	higher	improved	
Nc1nc2c(cc1C(=O)NCc1ccc(OCc3ccccc3)cc1)COC2 [Reference Example 3]		2.72		100.0%	78.0%			82 µL/min/mg	2 µg/mL (≈ 5.33 µM)	strong anticandidal activity equal to that of amphotericin B		improved	
Cc1nc(N)c(C(=O)NCc2ccc(COc3ccccn3)cc2)nc1C [Comparative Example 2, 3-Amino-5,6-dimethyl-N-({4-[(pyridin-2-yloxy)methyl]phenyl}methyl)pyrazine-2-carboxamide, reference compound]		3.26	0.9 µM (≈ 0.327 µg/mL)	100.0%	73.0%	53.7%	30.9%	98 µL/min/mg	0.063 µg/mL (≈ 0.173 µM)	strong anticandidal activity equal to that of amphotericin B			

Source: patent publication US9975910B2, “Hetero-fused cyclic compound” (Eisai R&D Management Co., Ltd., priority 2013, dated 2018)
